According to patent US11446282B2, “Methods of treating mixed dyslipidemia and hypertriglycertdemia” (Kowa Company, Ltd., priority 2017, dated 2022):

System: dyslipidemic patients with renal impairment
Test: Example 3 phase III 52-week trial: lipid levels
Type: in vivo, human
Settings: for HDL-C % Change from baseline at Week 52 (LOCF) / HDL-C Week 52 (LOCF) / LDL-C % Change from baseline at Week 52 (LOCF) / LDL-C Week 52 (LOCF) / RemL-C % Change from baseline at Week 52 (LOCF) / RemL-C Week 52 (LOCF) / TG % Change from baseline at Week 52 (LOCF) / TG Week 52 (LOCF) / TG/HDL-C % Change from baseline at Week 52 (LOCF) / TG/HDL-C Week 52 (LOCF) / apoA1 % Change from baseline at Week 52 (LOCF) / apoA1 Week 52 (LOCF) / non-HDL-C % Change from baseline at Week 52 (LOCF) / non-HDL-C Week 52 (LOCF): 0.2 (0.4) mg/day
Experimental: This was a multicenter, single-arm, open-label, phase III trial. The inclusion criteria were as follows: (1) patients with dyslipidemia aged >20 years at the time of informed consent; (2) men and postmenopausal women; (3) fasting serum TG≥1.70 mmol/L (150 mg/dL) at two consecutive measurements during screening; and (4) patients who followed dietary and physical exercise guidance for >12 weeks before enrollment.
The major exclusion criteria were as follows: (1) patients with fasting serum TG≥5.65 mmol/L (500 mg/dL) during screening; (2) patients with poorly controlled diabetes mellitus (hemoglobin A1c [HbA1c]≥10.5%); (3) patients with concurrent poorly controlled thyroid disease; (4) men with serum creatinine ≥2.5 mg/dL and women with serum creatinine ≥2.0 mg/dL during screening who were already on statin therapy; (5) patients with eGFR<45 mL/min/1.73 m^2 during screening who were already on statin therapy; (6) patients with CK>5ULN (270 IU/L for men, 150 IU/L for women) during screening who were already on statin therapy; (7) patients with serious liver disease (cirrhosis Child-Pugh Class B or higher); (8) patients with gallstones or serious biliary tract disease; (9) patients who had suffered an acute myocardial infarction or stroke within three months before informed consent; and (10) patients with New York Heart Association class III or IV heart failure.
During the screening period (8 weeks prior to treatment initiation), tests were performed twice to determine patient eligibility. Thereafter, eligible patients orally received pemafibrate 0.2 mg/day (twice daily) for 52 weeks. From week 12 of the treatment period onwards, the investigators were instructed that the dose could be increased from 0.2 mg/day to 0.4 mg/day (twice daily) if there was an inadequate response to the initial dose based on fasting serum TG levels ≥1.70 mmol/L (150 mg/dL). Fasting blood and urine samples were collected at each visit. Blood and urine sample in patients with hemodialysis were collected just before dialysis. LDL-C levels were measured using the direct method. Lipoprotein fractions were measured by HPLC at baseline and weeks 12 and 40.
The primary efficacy endpoint was the percent change in fasting serum TG from baseline to the last evaluation point. The primary safety endpoints were the incidence of an AE or ADR occurring after drug administration during the study. Secondary efficacy endpoints included percent changes in lipid variables and changes in inflammation variables at week 52 [using the last-observation-carried-forward (LOCF)]. Secondary safety endpoints included changes in the levels of aspartate aminotransferase (AST), ALT, -GT, ALP, serum creatinine, eGFR, and CK at week 52. Each baseline value was defined as (1) the mean of the corresponding values in the first and second tests at the screening examination and at week 0 of the treatment period for fasting serum TG, HDL-C, total cholesterol (TC), LDL-C, and non-HDL-C; and (2) the value at week 0 of the treatment period for the other secondary variables.
The target sample size was set to 170 patients based on the number required to evaluate safety according to the International Conference on Harmonisation (ICH)-E1 guideline “Extent of population exposure to assess clinical safety for drugs intended for long-term treatment of non-life-threatening conditions”. For the primary efficacy endpoint, one-sample t-tests were performed.
The numbers of patients with AEs and ADRs and the incidences of AEs and ADRs were calculated in the analysis of primary safety endpoints. For the secondary efficacy endpoints, one-sample t-tests or Wilcoxon signed-rank tests [for high-sensitivity C-reactive protein (hsCRP) and IL-1] were performed. The secondary safety endpoints were analyzed with Wilcoxon signed-rank tests. A two-sided significance level of 0.05 was used. SAS v. 9.3 (SAS Institute Inc., Cary, N.C., USA) was used for these analyses. […]

CC[C@@H](Oc1cccc(CN(CCCOc2ccc(OC)cc2)c2nc3ccccc3o2)c1)C(=O)O [Pemafibrate, (2R)-2-[3-({1,3-benzoxazol-2-yl[3-(4-methoxyphenoxy)propyl]amino}methyl)phenoxy]butanoic acid]
HDL-C % Change from baseline at Week 52 (LOCF) (All Participants): 13.1% | HDL-C Week 52 (LOCF) (All Participants): 1.33 mmol/L | LDL-C % Change from baseline at Week 52 (LOCF) (All Participants): 2.2% | LDL-C Week 52 (LOCF) (All Participants): 3.02 mmol/L | RemL-C % Change from baseline at Week 52 (LOCF) (All Participants): −57.2% | RemL-C Week 52 (LOCF) (All Participants): 0.18 mmol/L | TG % Change from baseline at Week 52 (LOCF) (All Participants): −45.8% | TG Week 52 (LOCF) (All Participants): 1.48 mmol/L | TG/HDL-C % Change from baseline at Week 52 (LOCF) (All Participants): −49.7% | TG/HDL-C Week 52 (LOCF) (All Participants): 2.27 (mmol/L)/(mmol/L) | apoA1 % Change from baseline at Week 52 (LOCF) (All Participants): 5.0% | apoA1 Week 52 (LOCF) (All Participants): 137.6 mg/dL | non-HDL-C % Change from baseline at Week 52 (LOCF) (All Participants): −8.7% | non-HDL-C Week 52 (LOCF) (All Participants): 3.63 mmol/L | HDL-C % Change from baseline at Week 52 (LOCF) (eGFR G1 (≥90)): 3.6% | HDL-C Week 52 (LOCF) (eGFR G1 (≥90)): 1.29 mmol/L | LDL-C % Change from baseline at Week 52 (LOCF) (eGFR G1 (≥90)): 2.7% | LDL-C Week 52 (LOCF) (eGFR G1 (≥90)): 3.12 mmol/L | RemL-C % Change from baseline at Week 52 (LOCF) (eGFR G1 (≥90)): −59.9% | RemL-C Week 52 (LOCF) (eGFR G1 (≥90)): 0.21 mmol/L | TG % Change from baseline at Week 52 (LOCF) (eGFR G1 (≥90)): −41.4% | TG Week 52 (LOCF) (eGFR G1 (≥90)): 1.71 mmol/L | TG/HDL-C % Change from baseline at Week 52 (LOCF) (eGFR G1 (≥90)): −40.5% | TG/HDL-C Week 52 (LOCF) (eGFR G1 (≥90)): 1.58 (mmol/L)/(mmol/L) | apoA1 % Change from baseline at Week 52 (LOCF) (eGFR G1 (≥90)): 0.0% | apoA1 Week 52 (LOCF) (eGFR G1 (≥90)): 133.8 mg/dL | non-HDL-C % Change from baseline at Week 52 (LOCF) (eGFR G1 (≥90)): −8.3% | non-HDL-C Week 52 (LOCF) (eGFR G1 (≥90)): 3.77 mmol/L | HDL-C % Change from baseline at Week 52 (LOCF) (eGFR G2 (≥60 and <90)): 11.9% | HDL-C Week 52 (LOCF) (eGFR G2 (≥60 and <90)): 1.34 mmol/L | LDL-C % Change from baseline at Week 52 (LOCF) (eGFR G2 (≥60 and <90)): 2.1% | LDL-C Week 52 (LOCF) (eGFR G2 (≥60 and <90)): 3.03 mmol/L | RemL-C % Change from baseline at Week 52 (LOCF) (eGFR G2 (≥60 and <90)): −56.0% | RemL-C Week 52 (LOCF) (eGFR G2 (≥60 and <90)): 0.18 mmol/L | TG % Change from baseline at Week 52 (LOCF) (eGFR G2 (≥60 and <90)): −45.8% | TG Week 52 (LOCF) (eGFR G2 (≥60 and <90)): 1.47 mmol/L | TG/HDL-C % Change from baseline at Week 52 (LOCF) (eGFR G2 (≥60 and <90)): −48.9% | TG/HDL-C Week 52 (LOCF) (eGFR G2 (≥60 and <90)): 1.24 (mmol/L)/(mmol/L) | apoA1 % Change from baseline at Week 52 (LOCF) (eGFR G2 (≥60 and <90)): 4.1% | apoA1 Week 52 (LOCF) (eGFR G2 (≥60 and <90)): 137.2 mg/dL | non-HDL-C % Change from baseline at Week 52 (LOCF) (eGFR G2 (≥60 and <90)): −8.4% | non-HDL-C Week 52 (LOCF) (eGFR G2 (≥60 and <90)): 3.64 mmol/L | HDL-C % Change from baseline at Week 52 (LOCF) (eGFR G3a-G3b (≥30 and <60)): 17.0% | HDL-C Week 52 (LOCF) (eGFR G3a-G3b (≥30 and <60)): 1.38 mmol/L | LDL-C % Change from baseline at Week 52 (LOCF) (eGFR G3a-G3b (≥30 and <60)): 5.1% | LDL-C Week 52 (LOCF) (eGFR G3a-G3b (≥30 and <60)): 2.97 mmol/L | RemL-C % Change from baseline at Week 52 (LOCF) (eGFR G3a-G3b (≥30 and <60)): −59.3% | RemL-C Week 52 (LOCF) (eGFR G3a-G3b (≥30 and <60)): 0.17 mmol/L | TG % Change from baseline at Week 52 (LOCF) (eGFR G3a-G3b (≥30 and <60)): −51.1% | TG Week 52 (LOCF) (eGFR G3a-G3b (≥30 and <60)): 1.36 mmol/L | TG/HDL-C % Change from baseline at Week 52 (LOCF) (eGFR G3a-G3b (≥30 and <60)): −57.0% | TG/HDL-C Week 52 (LOCF) (eGFR G3a-G3b (≥30 and <60)): 1.09 (mmol/L)/(mmol/L) | apoA1 % Change from baseline at Week 52 (LOCF) (eGFR G3a-G3b (≥30 and <60)): 8.0% | apoA1 Week 52 (LOCF) (eGFR G3a-G3b (≥30 and <60)): 144.0 mg/dL | non-HDL-C % Change from baseline at Week 52 (LOCF) (eGFR G3a-G3b (≥30 and <60)): −7.7% | non-HDL-C Week 52 (LOCF) (eGFR G3a-G3b (≥30 and <60)): 3.56 mmol/L | HDL-C % Change from baseline at Week 52 (LOCF) (eGFR G4-G5 (<30)): 34.1% | HDL-C Week 52 (LOCF) (eGFR G4-G5 (<30)): 1.18 mmol/L | LDL-C % Change from baseline at Week 52 (LOCF) (eGFR G4-G5 (<30)): −8.8% | LDL-C Week 52 (LOCF) (eGFR G4-G5 (<30)): 2.82 mmol/L | RemL-C % Change from baseline at Week 52 (LOCF) (eGFR G4-G5 (<30)): −57.1% | RemL-C Week 52 (LOCF) (eGFR G4-G5 (<30)): 0.24 mmol/L | TG % Change from baseline at Week 52 (LOCF) (eGFR G4-G5 (<30)): −37.7% | TG Week 52 (LOCF) (eGFR G4-G5 (<30)): 1.64 mmol/L | TG/HDL-C % Change from baseline at Week 52 (LOCF) (eGFR G4-G5 (<30)): −51.0% | TG/HDL-C Week 52 (LOCF) (eGFR G4-G5 (<30)): 1.68 (mmol/L)/(mmol/L) | apoA1 % Change from baseline at Week 52 (LOCF) (eGFR G4-G5 (<30)): 16.7% | apoA1 Week 52 (LOCF) (eGFR G4-G5 (<30)): 122.4 mg/dL | non-HDL-C % Change from baseline at Week 52 (LOCF) (eGFR G4-G5 (<30)): −17.3% | non-HDL-C Week 52 (LOCF) (eGFR G4-G5 (<30)): 3.48 mmol/L | LDL-C change (observation) (lowest eGFR group (eGFR<30 mL/min/1.73 m^2: G4-G5)): reduction
